Assay results taken from publication PMC11725581, “Developing novel Lin28 inhibitors by computer aided drug design” (Cell Death Discovery, 2025).

Assays:
cancer cells = system: cancer cells; design: method as in PMID 27548809; conditions: cited from earlier work
Lin28a protein = target: T1, Lin28a protein (Homo sapiens, UniProt Q9H9Z2); assay: EMSA with Lin28a protein and pre-let-7d probe; type: binding; conditions: same EMSA conditions
T1 sequence (Q9H9Z2 1-209): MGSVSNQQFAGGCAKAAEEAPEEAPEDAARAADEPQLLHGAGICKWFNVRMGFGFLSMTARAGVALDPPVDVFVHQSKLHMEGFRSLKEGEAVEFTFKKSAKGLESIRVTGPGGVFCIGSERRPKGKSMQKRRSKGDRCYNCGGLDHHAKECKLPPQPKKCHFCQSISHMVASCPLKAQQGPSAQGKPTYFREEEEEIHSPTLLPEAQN
Method: (§1) We next validated the newly developed compounds using EMSA, a non-florescent-based assay to detect Lin28b ZKD:pre-let-7 complex formation. Similar to the FP assays, we first optimized the experimental conditions by titrating: (1) IRDye800-labeled pre-let-7d RNA probe, (2) Lin28b ZKD protein, and (3) non-labeled pre-let-7 probe as a competitor (Fig. 2C). For the validation experiments, 1 μM Lin28 ZKD and 10 nM of IRDye800-labeled pre-let-7d probe were mixed with each candidate compound. Compounds C1632 and Ln15 were used as control Lin28 inhibitors, respectively. […] Regardless, we use these two biochemical assays to shortlist the most promising compounds for further characterization. […] While our inhibitors directly target the Lin28 ZKD, it is unclear whether C1632 may bind to domains other than the ZKD or allosterically disrupt Lin28’s capacity to bind its RNA substrates.
EMSA followed the standard protocols we published. An IRDye800CWN-labeled pre-Let-7d RNA probe (5’-IRD800CWN-[…]-3’) was purchased from IDT (Coralville, IA, USA). Lin28a or Lin28b proteins were incubated with 300 nM of probe in a standard 20 uL EMSA reaction in a reaction buffer containing 20 mM HEPES-NaOH, pH 7.4, 2 mM DTT, 3 mM MgCl2, 0.05% NP-40, protease inhibitors, and 0.1 ug poly[dI:dC]. After incubation for 30 min at 37 °C, reactions were loaded onto 4% non-denatured polyacrylamide gel in 0.5× TBE buffer. […]

DuNE spheroids = assay: DuNE 3D spheroid growth (Incucyte); type: cell-based; conditions: 0-100 μM, 0-6 days, read-out: concentration to achieve 50% spheroid growth inhibition
Text: (§2) CSCs have characteristic tumorigenic, self-renewal, and differentiation properties. The self-renewal ability is hijacked by CSCs that makes them both tumorigenic and capable of sustaining long-term tumor growth, which can be evaluated by 3D spheroid and colony formation assays. We established a DuNE spheroid model in which DuNE cells formed 3D spheroids in 96-well plates (Figure S3). By integrating this 3D culture with the Incucyte live-cell imaging system, we quantified the sizes of the spheroid growth over 0–6 days to generate a spheroid growth curve. Using this model system, we treated the DuNE spheroids with increasing doses (0–100 μM) of C1632, Ln15, and Ln268 for 0–6 days. […] In addition, classic colony formation assays were used to measure the stemness in the DuNE model. Colony formation counts, which were ~50 under vehicle treatment after 14 days, decreased by 22% in C1632-treated plates, and by 75% and 96% in the Ln15 and Ln268 treated plates, respectively (Fig. 4D).
For a spheroid generation, 1000 cells/well were seeded in 96-well ULA round-bottomed plates (Corning, Amsterdam) using a multichannel pipette. 3D multicellular spheroids were spontaneously generated after 24 h culture. Plates were incubated for 6 days at 37 °C, 5% CO2, and 95% humidity. DuNE and Du145 cells were cultured in DMEM with 10% FBS. Fully automated image analysis of tumor spheroids was carried out with the Incucyte® S3 Live-Cell Analysis System. The size and shape of multicellular spheroids were analyzed by using the Incucyte® Spheroid Analysis Software Module.

Lin28b ZKD [1] = target: T2, Lin28b ZKD (Homo sapiens, UniProt Q6ZN17); assay: EMSA, Lin28b ZKD:pre-let-7d complex formation; type: binding; conditions: 1 μM Lin28 ZKD, 10 nM IRDye800-labeled pre-let-7d probe
T2 sequence (Q6ZN17 127-166 limits assumed): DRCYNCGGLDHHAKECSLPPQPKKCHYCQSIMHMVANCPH
Method: as §1
EMSA followed the standard protocols we published. An IRDye800CWN-labeled pre-Let-7d RNA probe (5’-IRD800CWN-[…]-3’) was purchased from IDT (Coralville, IA, USA). Lin28a or Lin28b proteins were incubated with 300 nM of probe in a standard 20 uL EMSA reaction in a reaction buffer containing 20 mM HEPES-NaOH, pH 7.4, 2 mM DTT, 3 mM MgCl2, 0.05% NP-40, protease inhibitors, and 0.1 ug poly[dI:dC]. After incubation for 30 min at 37 °C, reactions were loaded onto 4% non-denatured polyacrylamide gel in 0.5× TBE buffer. The RNA oligo bands were visualized by using the Li-Cor Odyssey 9120 Infrared Imaging System.

DuNE cells = assay: Colony formation assay, DuNE cells; type: cell-based; conditions: 14 days, vs vehicle (~50 colonies)
Text: as §2
In the colony formation assays, cancer cells were seeded in 0.7% soft agar in a 6-well plate, with a 1% soft agar bottom base coating. Cells were allowed to grow for 14 days to form colonies. Colonies were stained with crystal violet and imaged by stitching 5X field images together to capture the entire well (Zeiss light microscope [Carl Zeiss]). Colony numbers were counted according to their diameters (100-300um or >300um). Three independent biological replicates were performed for all the assays.

Lin28b ZKD [2] = target: T2, Lin28b ZKD; assay: Fluorescence polarization (FP) assay, Lin28b ZKD:pre-let-7d interaction; type: binding; conditions: 10 nM pre-let-7d probe, 1 μM Lin28b ZKD
Method: We conducted two biochemical assays, FP and EMSA, to validate the predicted compounds. To optimize the FP assays, we performed a series of titrations using: (1) FAM-labeled pre-let-7d RNA probe, (2) Lin28b ZKD protein, and (3) non-labeled pre-let-7 probe as a competitor (Fig. 2A). These assays yielded the optimal concentrations required for the subsequent FP validation assays, namely 10 nM for the pre-let-7d probe and 1 μM for Lin28b ZKD protein. The FP signal from the free probe was set as 0%, while the signal from the probe-ZKD complex in the absence of compounds was set as 100%. C1632 was used as a control Lin28 inhibitor (Fig. 2B). […] Since the docking pocket is almost identical between Lin28a and Lin28b homologs, we repeated the FP assays using Lin28a ZKD (Figure S2).
The fluorescein amidites (FAM)-tagged pre-Let-7d probe with the sequence of […] was purchased from Integrated DNA Technologies (IDT). The probe at the concentrations ranging from 1 nM to 50 uM was incubated with Lin28B (ZKD) or Lin28 (CSD+ZKD) to a final volume of 30 uL at room temperature for 20 min. To read the fluorescence, a TECAN 500 machine was used. Fluorescence polarization was calculated using the following equation:
P=(Fparrallel−Fperpendicular)/(Fparrallel+FperpendicularP)
where P is the fluorescence polarization reading, F parallel is the fluorescence intensity acquired from the parallel excitation plane, and F perpendicular is the fluorescence intensity acquired from the perpendicular direction of the excitation plane. The total fluorescence intensity is estimated using the following equation:
F=Fparallel+2FperpendicularF.
All the raw FP signal data from the TECAN 500 FP results were analyzed using Prism 8.0 (GraphPad, San Diego, CA, USA); normalized curves were plotted and IC50 values were estimated. All FP data were repeated three to five times.
Figure S1. Lin28b ZKD protein was incubated with the indicated compounds at the concentration of 0, 0.1, 0.2, 0.5, 1, 2, 5, 10, 20, 50, 100, and 200uM. FP signals were measured and plotted relative to that from vehicle.

Lin28b ZKD [3] = target: T2, Lin28b ZKD; assay: 1H-15N HSQC NMR of Lin28b-ZKD with ligand; type: binding; conditions: ligand added in 20:1 molar ratio
Text: Given that Ln268 is derived from the parent compound Ln15, we wanted to assess whether the improved properties of Ln268 were linked to a potential difference in its interaction with Lin28 ZKD. To this end, we collected ^1H-^15N HSQC spectra of Lin28b-ZKD, Lin28b-ZKD + Ln15, and Lin28b-ZKD + Ln268. RNA binding proteins (RBPs) commonly have binding pockets that are intrinsically disordered, as evidenced by the narrow chemical shift dispersion observed in the HQSC of Lin28b-ZKD alone (Fig. 3D). Addition of either Ln15 or Ln268 led to changes in the chemical shifts of ca. 20 residues, consistent with the change in conformation of the Lin28b-ZKD segment which encompasses residues 137–160 (three of which are prolines) upon RNA binding (Fig. 3E). Although many of the peak shifts are the same for the Ln15 and Ln268 containing samples, there are around 7 resonances where the peaks disappear in the case of Ln268.
NMR spectra were recorded at 5 °C on a Bruker Avance III 850 MHz spectrometer, equipped with a TCI cryoprobe. ^1H-^15N HSQC experiments were recorded on ^13C/^15N-labeled Lin28b ZKD (230 μM), in 20 mM d-Tris-HCl (pH 7.5), 100 mM NaCl, 1 mM d-DTT, 0.02% NaN3, 0.25 mM ZnCl2 + 1 mM IDA, and 10% D2O, to which unlabeled Ln15 and Ln268 was added, respectively. The time domain matrix was 4k by 512. Four scans were acquired per t1 increment. Spectra were processed and plotted using Topspin to a final size of 8k by 1k. For the overlays, the levels were set to the same base level in all cases, with a multiplication factor of 1.1.

| SMILES | concentration needed for inhibitory effects on cancer cells (cancer cells) | inhibition of Lin28a protein (EMSA) (Lin28a protein) | IC50 (DuNE spheroids) [µM] | inhibition of Lin28b ZKD:pre-let-7d complex formation (EMSA) (Lin28b ZKD [1]) | decrease of colony formation counts (DuNE cells) [%] | IC50 (Lin28b ZKD [2]) [µM] | residues of Lin28b-ZKD with changed chemical shifts (1H-15N HSQC) (Lin28b ZKD [3]) |
| --- | --- | --- | --- | --- | --- | --- | --- |
| CC(=O)N(C)c1cccc(-c2ccc3nnc(C)n3n2)c1 [C1632, reference compound] | exceeding 100 μM | did not observe any obvious inhibition | 100 | did not observe any obvious inhibition | 22 |  |  |
| O=c1[nH]c(Nc2ccccc2O)cs1 [Ln15] |  |  | 50 |  | 75 | 9 | ca. 20 residues |
